This assay has as its target T1, LRRK2 (endogenous, HiBit tagged) (Homo sapiens, UniProt Q5S007).
T1 construct: endogenous in cells; host or cells: HEK293 cells with HiBit knock-in at the endogenous LRRK2 locus, stably expressing firefly luciferase
In words: Endogenous LRRK2 degradation assay, endogenous gene C-terminally HiBit-tagged in HEK293 cells (Nano-Glo Dual Luciferase). Format: cell-based. The method in brief: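 LRRK2-HiBit quantified via Nano-Glo Dual Luciferase in HEK293 knock-in cells co-expressing firefly luciferase, after 24 h exposure to compound (1 μM final top, 1:3, 11 points). Values normalised to DMSO median per plate and curve-fitted; Alamar Blue viability run alongside.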

Where [1] appears, read: endogenous HiBit-tagged LRRK2 in HEK293 cells, 24 hours treatment, read-out: **Endogenous WT Dmax (%).
Where [2] appears, read: endogenous HiBit-tagged LRRK2 in HEK293 cells, 24 hours treatment, read-out: *Endogenous WT DC50.
[3] abbreviates: endogenous HiBit-tagged LRRK2 in HEK293 cells, 24 hours treatment, read-out: Endogenous WT DC50.
[4] abbreviates: endogenous HiBit-tagged LRRK2 in HEK293 cells, 24 hours treatment, read-out: Endogenous WT Dmax.
The mark [5] stands for this setting: endogenous HiBit-tagged LRRK2, HEK293 cells, 24 hours, read-out: **Endogenous WT Dmax (%).
[6] abbreviates: endogenous HiBit-tagged LRRK2, HEK293 cells, 24 hours, read-out: *Endogenous WT DC50.

Read-outs that look alike come from different tables or passages of the source.

T1 sequence (Q5S007 whole entry): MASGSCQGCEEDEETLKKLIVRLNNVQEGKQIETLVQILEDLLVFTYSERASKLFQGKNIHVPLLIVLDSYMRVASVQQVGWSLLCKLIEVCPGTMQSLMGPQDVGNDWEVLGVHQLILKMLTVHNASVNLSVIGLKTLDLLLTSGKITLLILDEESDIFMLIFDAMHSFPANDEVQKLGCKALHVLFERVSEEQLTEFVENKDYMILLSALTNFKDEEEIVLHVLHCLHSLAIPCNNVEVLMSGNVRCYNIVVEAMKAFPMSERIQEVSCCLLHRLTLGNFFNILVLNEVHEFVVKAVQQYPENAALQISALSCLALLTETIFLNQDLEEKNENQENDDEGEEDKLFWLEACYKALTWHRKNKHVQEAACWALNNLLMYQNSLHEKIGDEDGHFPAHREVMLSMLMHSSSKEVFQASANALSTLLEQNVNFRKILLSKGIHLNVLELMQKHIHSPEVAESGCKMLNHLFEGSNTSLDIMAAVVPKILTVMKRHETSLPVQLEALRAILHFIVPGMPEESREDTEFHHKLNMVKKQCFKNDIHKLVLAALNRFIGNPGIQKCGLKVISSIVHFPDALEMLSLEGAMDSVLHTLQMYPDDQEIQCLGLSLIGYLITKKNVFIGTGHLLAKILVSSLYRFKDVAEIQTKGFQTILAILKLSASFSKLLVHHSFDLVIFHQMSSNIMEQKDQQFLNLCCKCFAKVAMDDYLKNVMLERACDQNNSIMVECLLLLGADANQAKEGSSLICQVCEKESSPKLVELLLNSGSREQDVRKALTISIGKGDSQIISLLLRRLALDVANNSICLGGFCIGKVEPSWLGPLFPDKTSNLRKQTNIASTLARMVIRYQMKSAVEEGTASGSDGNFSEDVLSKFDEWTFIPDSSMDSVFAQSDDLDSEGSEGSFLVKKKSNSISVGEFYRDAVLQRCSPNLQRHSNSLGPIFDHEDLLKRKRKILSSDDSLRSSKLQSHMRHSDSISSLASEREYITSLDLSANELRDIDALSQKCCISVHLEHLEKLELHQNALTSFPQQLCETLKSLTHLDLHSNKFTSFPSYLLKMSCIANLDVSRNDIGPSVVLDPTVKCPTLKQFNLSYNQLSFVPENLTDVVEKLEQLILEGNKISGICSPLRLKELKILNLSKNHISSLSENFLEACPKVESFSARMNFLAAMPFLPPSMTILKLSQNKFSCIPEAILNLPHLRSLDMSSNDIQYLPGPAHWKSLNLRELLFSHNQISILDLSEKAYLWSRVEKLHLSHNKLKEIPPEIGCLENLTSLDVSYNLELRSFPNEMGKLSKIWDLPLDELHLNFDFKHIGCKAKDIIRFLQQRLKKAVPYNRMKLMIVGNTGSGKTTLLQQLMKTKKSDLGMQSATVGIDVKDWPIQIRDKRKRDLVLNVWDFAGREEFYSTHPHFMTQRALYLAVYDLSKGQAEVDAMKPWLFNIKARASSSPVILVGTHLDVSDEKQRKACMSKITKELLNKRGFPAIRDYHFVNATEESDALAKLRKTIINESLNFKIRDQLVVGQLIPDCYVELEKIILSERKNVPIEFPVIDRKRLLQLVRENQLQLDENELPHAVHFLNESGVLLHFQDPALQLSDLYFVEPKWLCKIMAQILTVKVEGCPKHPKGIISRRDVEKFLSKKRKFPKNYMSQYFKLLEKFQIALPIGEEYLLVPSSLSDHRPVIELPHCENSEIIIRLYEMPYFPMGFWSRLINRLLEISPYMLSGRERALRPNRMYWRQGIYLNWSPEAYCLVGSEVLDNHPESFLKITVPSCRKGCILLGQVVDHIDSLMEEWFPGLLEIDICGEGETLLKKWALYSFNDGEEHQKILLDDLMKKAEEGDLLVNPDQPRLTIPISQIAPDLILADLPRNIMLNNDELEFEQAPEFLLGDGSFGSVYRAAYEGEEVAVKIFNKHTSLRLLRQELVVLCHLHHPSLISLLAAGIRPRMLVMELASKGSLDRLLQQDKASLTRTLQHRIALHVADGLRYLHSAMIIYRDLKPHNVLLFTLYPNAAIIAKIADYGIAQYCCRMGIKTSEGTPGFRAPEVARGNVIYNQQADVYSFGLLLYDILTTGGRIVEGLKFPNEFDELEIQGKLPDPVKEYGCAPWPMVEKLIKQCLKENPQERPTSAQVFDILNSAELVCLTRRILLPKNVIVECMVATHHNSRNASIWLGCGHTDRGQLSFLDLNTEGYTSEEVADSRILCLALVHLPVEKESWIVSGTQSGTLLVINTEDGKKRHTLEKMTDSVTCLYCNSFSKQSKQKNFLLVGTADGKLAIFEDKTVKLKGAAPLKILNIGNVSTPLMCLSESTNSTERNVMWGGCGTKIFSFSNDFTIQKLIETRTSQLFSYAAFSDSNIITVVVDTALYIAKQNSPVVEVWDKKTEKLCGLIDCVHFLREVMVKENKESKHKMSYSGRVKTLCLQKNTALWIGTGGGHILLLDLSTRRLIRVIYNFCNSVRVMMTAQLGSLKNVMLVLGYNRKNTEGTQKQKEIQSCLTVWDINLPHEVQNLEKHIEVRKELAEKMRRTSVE

A word on the Dmax: it is the greatest extent of degradation seen. The term DC50 denotes the concentration at which degradation of the target reaches its halfway point. In the case of `CC1(Oc2ccc3[nH]nc(-c4cc(N5CCC(CN6CC[C@@H](OC7CCN(c8ccc9c(c8F)CN(C8CCC(=O)NC8=O)C9=O)CC7)CC6(C)C)CC5)ncn4)c3c2)CC1` (stereo partly drawn) [Compound 310, 3-[5-(4-{[(4R)-2,2-dimethyl-1-[(1-{6-[5-(1-methylcyclopropoxy)-1H-indazol-3-yl]pyrimidin-4-yl}piperidin-4-yl)methyl]piperidin-4-yl]oxy}piperidin-1-yl)-4-fluoro-1-oxo-2,3-dihydro-1H-isoindol-2-yl]piperidine-2,6-dione], the greatest degradation seen (Dmax) under setting [1] lay in the range of 50 to 70%. Under setting [2], the DC50 was below 10 nM.
Regarding `C[C@H]1CN(c2cc(-c3n[nH]c4ccc(OC5(C)CC5)cc34)ncn2)CCN1CCN1CCC2(CN(c3ccc4c(c3F)CN(C3CCC(=O)NC3=O)C4=O)C2)C(F)(F)C1` (stereo partly drawn) [Compound 317, 3-[5-(5,5-difluoro-7-{2-[(2S)-2-methyl-4-{6-[5-(1-methylcyclopropoxy)-1H-indazol-3-yl]pyrimidin-4-yl}piperazin-1-yl]ethyl}-2,7-diazaspiro[3.5]nonan-2-yl)-4-fluoro-1-oxo-2,3-dihydro-1H-isoindol-2-yl]piperidine-2,6-dione], the greatest degradation seen (Dmax) under setting [1] fell in the range of 50 to 70%. The DC50 under setting [2] was below 10 nM.
`C[C@H]1CN(CC2CCN(c3ccc4c(c3F)CN(C3CCC(=O)NC3=O)C4=O)CC2)CCN1CC1CCN(c2cc(-c3n[nH]c4ccc(OC5(C)CC5)cc34)ncn2)CC1` (stereo partly drawn) [Compound 221, 3-[4-fluoro-5-(4-{[(3S)-3-methyl-4-[(1-{6-[5-(1-methylcyclopropoxy)-1H-indazol-3-yl]pyrimidin-4-yl}piperidin-4-yl)methyl]piperazin-1-yl]methyl}piperidin-1-yl)-1-oxo-2,3-dihydro-1H-isoindol-2-yl]piperidine-2,6-dione]: the DC50 under setting [3] was below 10 nM. Moreover, the Dmax under setting [4] was 50 to 70%.
For `CC1(Oc2ccc3[nH]nc(-c4cc(N5CCC(CN6CCC(F)(CC7CCN(c8ccc9c(c8F)CN(C8CCC(=O)NC8=O)C9=O)CC7)CC6)CC5)ncn4)c3c2)CC1` (stereo not drawn) [Compound 231, 3-[4-fluoro-5-[4-[[4-fluoro-1-[[1-[6-[5-(1-methylcyclopropoxy)-1H-indazol-3-yl]pyrimidin-4-yl]-4-piperidyl]methyl]-4-piperidyl]methyl]-1-piperidyl]-1-oxo-isoindolin-2-yl]piperidine-2,6-dione], in that order: below 10 nM and 50 to 70%.
On the same counts, the results for `COc1c(N2CCN(CC3(F)CCN(CC4CCN(c5cc(-c6n[nH]c7cnc(OC8(C)CC8)cc67)ncn5)CC4)CC3)CC2)ccc2c1CN(C1CCC(=O)NC1=O)C2=O` (stereo not drawn) [Compound 369, 3-{5-[4-({4-fluoro-1-[(1-{6-[5-(1-methylcyclopropoxy)-1H-pyrazolo[3,4-c]pyridin-3-yl]pyrimidin-4-yl}piperidin-4-yl)methyl]piperidin-4-yl}methyl)piperazin-1-yl]-4-methoxy-1-oxo-2,3-dihydro-1H-isoindol-2-yl}piperidine-2,6-dione] are below 10 nM and 50 to 70%.
As to `CC1(Oc2cc3c(-c4cc(N5CCC(CN6CCC(F)(CN7CCN(c8cc9c(cc8F)C(=O)N(C8CCC(=O)NC8=O)C9)CC7)CC6)CC5)ncn4)[nH]nc3cc2F)CC1` (stereo not drawn) [Compound 193, 3-[6-fluoro-5-[4-[[4-fluoro-1-[[1-[6-[6-fluoro-5-(1-methylcyclopropoxy)-2H-indazol-3-yl]pyrimidin-4-yl]-4-piperidyl]methyl]-4-piperidyl]methyl]piperazin-1-yl]-1-oxo-isoindolin-2-yl]piperidine-2,6-dione], the greatest degradation seen (Dmax) under setting [5] is at least 70%. Also, under setting [6], the DC50 was below 10 nM.
For the compound `C[C@@H]1CN(c2cc(-c3n[nH]c4ccc(OC5(C)CC5)cc34)ncn2)C[C@H](C)N1C[C@H]1CC[C@H](OC2CCN(c3ccc4c(c3F)CN(C3CCC(=O)NC3=O)C4=O)CC2)CC1` (stereo partly drawn) [Compound 352, 3-[4-fluoro-1-oxo-5-(4-{[(1r,4r)-4-{[(2R,6S)-2,6-dimethyl-4-{6-[5-(1-methylcyclopropoxy)-1H-indazol-3-yl]pyrimidin-4-yl}piperazin-1-yl]methyl}cyclohexyl]oxy}piperidin-1-yl)-2,3-dihydro-1H-isoindol-2-yl]piperidine-2,6-dione], the Dmax under setting [1] fell in the range of 50 to 70%. The DC50 under setting [2] is below 10 nM.
For the compound `CC1(Oc2ccc3[nH]nc(-c4cc(N5CCC(CN6CCC7(CN(c8ccc9c(c8F)CN(C8CCC(=O)NC8=O)C9=O)C7)C(F)(F)C6)CC5)ncn4)c3c2)CC1` (stereo not drawn) [Compound 350, 3-(5-{5,5-difluoro-7-[(1-{6-[5-(1-methylcyclopropoxy)-1H-indazol-3-yl]pyrimidin-4-yl}piperidin-4-yl)methyl]-2,7-diazaspiro[3.5]nonan-2-yl}-4-fluoro-1-oxo-2,3-dihydro-1H-isoindol-2-yl)piperidine-2,6-dione], the greatest degradation seen (Dmax) under setting [1] fell in the range of 50 to 70%. Moreover, the DC50 under setting [2] was below 10 nM.
For the compound `CC1(Oc2cc3c(-c4cc(N5CCN(C[C@@H]6CCN(CC7CCN(c8ccc9c(c8F)CN(C8CCC(=O)NC8=O)C9=O)CC7)C[C@@H]6F)CC5)ncn4)n[nH]c3cc2F)CC1` (stereo partly drawn) [Compound 299, 3-[4-fluoro-5-(4-{[(3r,4s)-3-fluoro-4-[(4-{6-[6-fluoro-5-(1-methylcyclopropoxy)-1H-indazol-3-yl]pyrimidin-4-yl}piperazin-1-yl)methyl]piperidin-1-yl]methyl}piperidin-1-yl)-1-oxo-2,3-dihydro-1H-isoindol-2-yl]piperidine-2,6-dione], the Dmax under setting [1] was 50 to 70%. In addition, under setting [2], the half-maximal degradation concentration (DC50) was below 10 nM.
For `CC1(Oc2ccc3n[nH]c(-c4cc(N5CCC(CN6CC(F)(CC7CCN(c8ccc9c(c8F)CN(C8CCC(=O)NC8=O)C9=O)CC7)C6)CC5)ncn4)c3c2)CC1` (stereo not drawn) [Compound 337, 3-{4-fluoro-5-[4-({3-fluoro-1-[(1-{6-[5-(1-methylcyclopropoxy)-2H-indazol-3-yl]pyrimidin-4-yl}piperidin-4-yl)methyl]azetidin-3-yl}methyl)piperidin-1-yl]-1-oxo-2,3-dihydro-1H-isoindol-2-yl}piperidine-2,6-dione], in that order: at least 70% and below 10 nM.
In the case of `CC1(Oc2ccc3[nH]nc(-c4cc(N5CCN(CC6(F)CCN(CC7CCN(c8ccc9c(c8F)CN(C8CCC(=O)NC8=O)C9=O)CC7)CC6)CC5)ncn4)c3c2)CC1` (stereo not drawn) [Compound 182, 3-[4-fluoro-5-[4-[[4-fluoro-4-[[4-[6-[5-(1-methylcyclopropoxy)-1H-indazol-3-yl]pyrimidin-4-yl]piperazin-1-yl]methyl]-1-piperidyl]methyl]-1-piperidyl]-1-oxo-isoindolin-2-yl]piperidine-2,6-dione], the maximal degradation (Dmax) under setting [5] was at least 70%. Besides, the 50% degradation concentration (DC50) under setting [6] was below 10 nM.
Turning to `Cc1cc(-c2n[nH]c3ccc(OC4(C)CC4)nc23)cc(N2CCC(O[C@H]3CC[C@H](CN4CCN(c5ccc6c(c5F)CN(C5CCC(=O)NC5=O)C6=O)CC4)CC3)CC2)n1` (stereo partly drawn) [Compound 371, 3-[4-fluoro-1-oxo-5-(4-{[(1r,4r)-4-[(1-{6-methyl-4-[5-(1-methylcyclopropoxy)-1H-pyrazolo[4,3-b]pyridin-3-yl]pyridin-2-yl}piperidin-4-yl)oxy]cyclohexyl]methyl}piperazin-1-yl)-2,3-dihydro-1H-isoindol-2-yl]piperidine-2,6-dione], the 50% degradation concentration (DC50) under setting [3] is below 10 nM. Besides, the Dmax under setting [4] was in the range of 50 to 70%.

Source of the values: patent US12559506B2, “Indazole based compounds and associated methods of use” (Arvinas Operations, Inc., priority 2021, dated 2026).
